According to patent US6596474B1, “Prevention and treatment of amyloid-associated disorders” (Scios Inc., priority 1999, dated 2003):

Experiments:
[1] = tested on: BV-2 murine microglial cells; test: Aβ activation of BV-2 cells (IL-1α); format: cell-based; settings: exogenous PGE2 co-incubation
Method: BV-2 murine microglial cells display many phenotypic properties of primary microglia (Blasi et al., 1990; Bocchini et al., 1992), including responsiveness to Aβ (Murphy et al., 1998). BV-2 cells are quasi-activated under basal culture conditions and secrete significant quantities of PGE2, and Aβ treatment alone induces IL-1α in BV-2 cells. […] This was believed to result from co-activation by endogenous PGE2.
The PGE2 concentration in the 24 hour conditioned media from a BV-2 cell culture was a typically 500-800 pg/ml, well above that used for Aβ:PGE2 stimulation. […] Aβ activation of BV-2 cells is highly reproducible, having been observed in 90% of experiments with a mean stimulation of 3.2 fold (n=21; p<0.05 vs. media control).

[2] = tested on: primary cortical mixed glial cultures; test: Aβ:PGE2 synergy in primary cortical mixed glial cultures, cytokine levels; format: cell-based, mice; settings: agent alone; 100 pg/ml PGE2 or 11 hour aged Aβ; 48 hours; indomethacin pretreated
Method: (§1) As co-culture with astrocytes is known to promote the resting state for cultured microglia, mixed primary glial cultures are a particularly suitable system in which to examine PGE2:Aβ synergy. Briefly, cortices from P3 wild type mice were dissected in Ca^2+ and Mg^2+ free HBSS (Gibco). Meninges were carefully dissected away, and the tissue transferred to a dish containing HBSS supplemented with 0.53 mM EDTA and 0.05% trypsin. The tissue was incubated for 18 minutes at room temperature with occasional gentle agitation. Trypsin was removed and the tissue washed with HBSS twice prior to titration in growth medium consisting of high glucose DMEM supplemented with 10% fetal bovine serum (FBS), 110 mg/L sodium pyruvate, and 5 units/ml penicillin/streptomycin. The cell suspension was plated at 9 cortices in growth medium into one T75 and one T25 flask. The next day, nonadherent cells were removed. The culture was refed with growth medium at this time and once every 3 days following. When the culture appeared quite confluent, approximately one week, it was trypsinized and split into 48 well plates at 10^5 cells/well. Experiments were initiated in several days when cells again reached confluence.
The effect of Aβ in the presence and absence of exogenous PGE2 was investigated in these primary cortical mixed glial cultures. An Aβ peptide was resuspended at 4 mg/ml in 50% HFIP, incubated overnight at 37° C., dried in a Speed Vac, and resuspended in water at 4 mg/ml. The peptide was then “aged” at 37° C. for 11 or 24 hours and sonicated for 30 seconds on ice prior to use.
100 pg/ml of PGE2 is a low dose that is not expected to stimulate receptors for thromboxane or other prostenoids and is likely to be physiologically relevant. […] Treatments were made in duplicate. After 48 hours, media and lysates were harvested and assayed.
We confirmed the cellular source of the if biochemical signal by immunocytochemistry with an anti-mouse IL-1α monoclonal antibody (R&D Systems).

[3] = tested on: mouse microglial cell line MMGT-16; test: Aβ:PGE2 synergy in MMGT-16 cells, cytokine secretion; format: cell-based; settings: agent alone
Excerpt: The protocol described above in Example 2 was then used to examine the synergy between PGE2 and Aβ in the mouse microglial cell line MMGT-16.
Synergy in MMGT-16 cells was examined by measuring secretion of both TNF-α (FIG. 5) and IL-1β (FIG. 4).

[4] = tested on: primary mixed murine glial cultures; test: PGE2 in medium conditioned by primary mixed murine glial cultures; format: cell-based; settings: 14 μM indomethacin during 48 hour conditioning; basal just under 200 pg/ml
Method: as §1
This is within the range in which would allow PGE2:Aβ synergy to be observed.

primary glia = test: Aβ:PGE2 activation of primary glia in presence of EP2 antagonist; format: cell-based; settings: even at 10-fold higher concentration than the Kd; FIG. 7
EP2 = EP2 (Homo sapiens, UniProt P43116); test: PGE2 stimulated cAMP accumulation functional assay; format: cell-based; settings: read-out: EC50 for inhibition of PGE2 induced cAMP generation
Sequence of EP2 (P43116 whole entry): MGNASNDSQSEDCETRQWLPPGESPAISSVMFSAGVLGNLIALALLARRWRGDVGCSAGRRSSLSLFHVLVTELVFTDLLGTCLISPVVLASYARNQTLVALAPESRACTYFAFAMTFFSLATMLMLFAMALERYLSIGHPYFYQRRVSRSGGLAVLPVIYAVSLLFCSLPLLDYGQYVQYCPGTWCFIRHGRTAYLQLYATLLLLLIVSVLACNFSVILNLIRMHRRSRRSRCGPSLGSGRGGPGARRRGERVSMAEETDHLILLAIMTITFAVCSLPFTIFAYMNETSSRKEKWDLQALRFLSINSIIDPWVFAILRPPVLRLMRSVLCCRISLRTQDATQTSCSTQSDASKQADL
Excerpt: (§2) An EP1/2 selective antagonist AH6809 (Woodward et al., 1995) was used to block the activity of EP2.

BV-2 microglia = test: Aβ stimulation of BV-2 cells in presence of antagonist or antisense; format: cell-based, murine
Excerpt: In addition, the EP2 antagonist AH6809 had no effect on Aβ stimulation of BV-2 cells (FIG. 7). Aβ treatment of BV-2 microglia has two striking morphological effects. First, cells clumped in a manner consistent with the well documented microglial chemotactic activity to Aβ. Second, the morphology of individual cells is altered such that they change from a spherical to an elongated, process bearing shape.
Since selective EP4 antagonists were unavailable, an antisense approach is used to probe involvement of EP4 in Aβ:PGE2 activation of microglia. The antisense oligonucleotides are first tested for their ability to inhibit EP4 expression by measuring their effect on PGE2 stimulation of cAMP accumulation, an EP2/EP4 mediated event. Once the activity of the antisense oligonucleotide is confirmed, the effect of the oligonucleotide on Aβ:PGE2 activation is tested in BV-2 microglial cells.
Next, BV-2 cells are pretreated with the antisense oligonucleotides for 48 hours and then, in the continued presence of the oligonucleotide, the pretreated cells are exposed to Aβ. […] The EP4 construct decreases IL-1β by 50%, a substantial effect for this method of inhibition (FIG. 8).

EP4 = EP4 (Homo sapiens, UniProt P35408); test: [3H]-PGE2 binding to EP4
Sequence of EP4 (P35408 whole entry): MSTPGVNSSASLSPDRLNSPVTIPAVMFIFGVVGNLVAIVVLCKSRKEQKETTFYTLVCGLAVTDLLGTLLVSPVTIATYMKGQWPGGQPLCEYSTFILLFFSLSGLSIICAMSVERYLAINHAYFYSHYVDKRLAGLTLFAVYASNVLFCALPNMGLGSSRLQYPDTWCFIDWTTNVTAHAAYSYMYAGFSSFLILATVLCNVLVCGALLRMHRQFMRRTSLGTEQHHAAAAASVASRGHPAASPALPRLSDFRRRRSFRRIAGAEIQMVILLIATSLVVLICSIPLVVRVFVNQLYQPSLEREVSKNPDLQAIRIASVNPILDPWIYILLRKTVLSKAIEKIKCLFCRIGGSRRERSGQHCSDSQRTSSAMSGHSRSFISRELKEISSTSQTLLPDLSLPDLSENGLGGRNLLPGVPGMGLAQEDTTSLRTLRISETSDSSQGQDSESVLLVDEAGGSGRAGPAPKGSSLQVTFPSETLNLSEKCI
Excerpt: as §2

EP1 = target: T1, EP1 (Homo sapiens, UniProt P34995); test: [3H]-PGE2 binding to EP1; settings: read-out: Ki for inhibition of [3H]-PGE2 binding to EP1
T1 sequence (P34995 1-402): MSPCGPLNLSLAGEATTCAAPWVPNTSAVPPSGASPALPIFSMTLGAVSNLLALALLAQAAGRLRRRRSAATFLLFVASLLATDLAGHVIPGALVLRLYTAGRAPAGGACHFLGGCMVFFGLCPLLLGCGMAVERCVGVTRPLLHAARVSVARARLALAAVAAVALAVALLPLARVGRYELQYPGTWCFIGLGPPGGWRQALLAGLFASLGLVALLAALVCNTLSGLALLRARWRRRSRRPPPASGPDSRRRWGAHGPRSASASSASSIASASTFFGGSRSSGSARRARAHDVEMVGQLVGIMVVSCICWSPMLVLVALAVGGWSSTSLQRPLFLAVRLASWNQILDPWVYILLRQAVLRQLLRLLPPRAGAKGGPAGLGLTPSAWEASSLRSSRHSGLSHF
Excerpt: as §2

microglia = test: cAMP pathway agents as co-activators with Aβ of microglia; format: cell-based
Excerpt: Two of the four PGE2 isoforms, EP2 and EP4, are coupled to Gs and elevate cAMP levels upon activation. EP3 is coupled to Gi and inhibits cAMP production while EP1 increased Ca^++i. As a first step in distinguishing the receptor isoform mediating the PGE2 signal, the second messenger in the Aβ coactivation pathway was identified.

CCCCC[C@H](O)/C=C/[C@H]1[C@H](O)CC(=O)[C@@H]1C/C=C\CCCC(=O)O [PGE2, Prostaglandin E2]
enhancement of Aβ-induced IL-1α elevation [1]: not further enhanced | intracellular IL-1α [2]: Neither PGE2 nor 11 hour aged Aβ alone had an effect | secreted IL-1α [2]: Neither PGE2 nor 11 hour aged Aβ alone had an effect | secreted IL-6 [2]: Neither PGE2 nor 11 hour aged Aβ alone had an effect | TNF-α secretion [3]: no discernable effect | secretion of IL-1β [3]: unaffected

COc1ccc2c(c1)c(CC(=O)O)c(C)n2C(=O)c1ccc(Cl)cc1 [indomethacin]
PGE2 secretion [4]: about 30 pg/ml

CC(C)Oc1ccc2c(=O)c3cc(C(=O)O)ccc3oc2c1 [AH6809]
effect on Aβ:PGE2 activation of primary glia (primary glia): no effect | EC50 (EP2): 1 µM | effect on morphological responses to Aβ (clumping, elongated process bearing shape) (BV-2 microglia; BV-2 microglia): no effect on either response | effect on Aβ stimulation of BV-2 cells (BV-2 microglia; FIG. 7): no effect | inhibition of [3H]-PGE2 binding to EP4 (EP4): lack of AH6809 inhibition | Ki (EP1): 1 µM

COc1ccc(C2CNC(=O)C2)cc1OC1CCCC1 (stereo not drawn) [rolipram]
effect on Aβ:PGE2 stimulation of microglial cytokine production (microglia): enhance

Nc1ncnc2c1nc(Br)n2[C@@H]1O[C@@H]2COP(=O)(O)O[C@H]2[C@H]1O [8-Br-cAMP]
substitution for PGE2 as co-activator with Aβ (microglia): ability to substitute for PGE2 as a coactivator with Aβ
